The results in this text go back to ChEMBL document CHEMBL1154426, “In vitro susceptibilities of Mycoplasma putrefaciens field isolates” (2007).

≈ marks a conversion by molar mass, not a printed value.

What all share (format): functional
Assay [1] concerns Mycoplasma putrefaciens. Description: Antimicrobial activity against Mycoplasma putrefaciens French isolates after 24 hrs by twofold serial dilution method.
For assay [2], the system named is Mycoplasma putrefaciens. Description: Antimicrobial activity against Mycoplasma putrefaciens Jordanian isolates after 24 hrs by twofold serial dilution method.
Assay [3] relates to Mycoplasma putrefaciens. Description: Antimicrobial activity against Mycoplasma putrefaciens KS1 after 24 hrs by twofold serial dilution method.

As usually defined, the MIC50 is an inhibitory concentration at the 50% level, which refers to growth in some studies and to a panel of isolates in others. Low readings indicate higher susceptibility, high ones lower susceptibility. A word on the MIC90: it is an inhibitory concentration at the 90% level, which refers to growth in some studies and to a panel of isolates in others. For orientation: MIC means the least concentration at which growth counts as inhibited. Higher therefore signals a less susceptible organism. In the assay on Mycoplasma putrefaciens [1], `O=C(N[C@H](CO)[C@H](O)c1ccc([N+](=O)[O-])cc1)C(Cl)Cl` [CHLORAMPHENICOL] came in with an MIC50 of 4 µg/mL (≈ 12.4 µM) and an MIC90 of 4 µg/mL (≈ 12.4 µM). For the same molecule, in the assay with Mycoplasma putrefaciens [2], the MIC50 is 2 µg/mL (≈ 6.19 µM) and the MIC90 came out at 4 µg/mL (≈ 12.4 µM). Besides, the MIC against Mycoplasma putrefaciens [3] (KS1, 24 h) is 4 µg/mL (≈ 12.4 µM).

`CN(C)[C@@H]1C(O)=C(C(N)=O)C(=O)[C@@]2(O)C(O)=C3C(=O)c4c(O)ccc(Cl)c4[C@@](C)(O)[C@H]3C[C@@H]12` [CHLORTETRACYCLINE]: in the assay with Mycoplasma putrefaciens [1], the MIC50 came out at 8 µg/mL (≈ 16.7 µM) and the MIC90 amounted to 16 µg/mL (≈ 33.4 µM). In the assay on Mycoplasma putrefaciens [2], this molecule registered an MIC50 of 4 µg/mL (≈ 8.35 µM) and an MIC90 of 4 µg/mL (≈ 8.35 µM). Moreover, 4 µg/mL (≈ 8.35 µM) was the least that counted as inhibitory with Mycoplasma putrefaciens [3] (KS1, 24 h) (MIC).

Turning to `O=C(O)c1cn(C2CC2)c2cc(N3CCNCC3)c(F)cc2c1=O` [CIPROFLOXACIN], the MIC50 against Mycoplasma putrefaciens [1] and against Mycoplasma putrefaciens [2] was 0.25 µg/mL (≈ 0.754 µM) throughout. For the same molecule, the MIC90 against Mycoplasma putrefaciens [1] was 0.5 µg/mL (≈ 1.51 µM); with Mycoplasma putrefaciens [2], 0.25 µg/mL (≈ 0.754 µM). Further, the MIC against Mycoplasma putrefaciens [3] (KS1, 24 h) is 0.25 µg/mL (≈ 0.754 µM).

In the case of `C[C@H]1c2cccc(O)c2C(=O)C2=C(O)[C@]3(O)C(=O)C(C(N)=O)=C(O)[C@@H](N(C)C)[C@@H]3[C@@H](O)[C@@H]21.O` [DOXYCYCLINE], the MIC50 in the assay on Mycoplasma putrefaciens [1] came to 0.25 µg/mL; with Mycoplasma putrefaciens [2], 0.125 µg/mL. In addition, the MIC90 in the assay with Mycoplasma putrefaciens [1] is 2 µg/mL; against Mycoplasma putrefaciens [2], 0.25 µg/mL. For the same molecule, inhibition of growth with Mycoplasma putrefaciens [3] (KS1, 24 h) (MIC) required 0.03 µg/mL.

In the assay on Mycoplasma putrefaciens [1], `CCN1CCN(c2cc3c(cc2F)c(=O)c(C(=O)O)cn3C2CC2)CC1` [ENROFLOXACIN] registered an MIC50 of 0.125 µg/mL (≈ 0.348 µM) and an MIC90 of 0.25 µg/mL (≈ 0.696 µM). In the assay on Mycoplasma putrefaciens [2], this molecule yielded an MIC50 of 0.125 µg/mL (≈ 0.348 µM) and an MIC90 of 0.125 µg/mL (≈ 0.348 µM). Besides, the MIC in the assay on Mycoplasma putrefaciens [3] (KS1, 24 h) was 0.125 µg/mL (≈ 0.348 µM).

On to `CC[C@H]1OC(=O)[C@H](C)[C@@H](O[C@H]2C[C@@](C)(OC)[C@@H](O)[C@H](C)O2)[C@H](C)[C@@H](O[C@@H]2O[C@H](C)C[C@H](N(C)C)[C@H]2O)[C@](C)(O)C[C@@H](C)C(=O)[C@H](C)[C@@H](O)[C@]1(C)O` [ERYTHROMYCIN], for which the MIC50 in the assay on Mycoplasma putrefaciens [1] and with Mycoplasma putrefaciens [2] was 0.03 µg/mL (≈ 0.0409 µM) in each case. Besides, the values for the MIC90 against Mycoplasma putrefaciens [1] and against Mycoplasma putrefaciens [2] were 0.125 µg/mL (≈ 0.17 µM) and 0.03 µg/mL (≈ 0.0409 µM), respectively. The molecule also showed an MIC in the assay on Mycoplasma putrefaciens [3] (KS1, 24 h) of 0.03 µg/mL (≈ 0.0409 µM).

As for `CCC[C@@H]1C[C@@H](C(=O)N[C@@H]([C@H]2O[C@H](SC)[C@H](O)[C@@H](O)[C@H]2O)[C@@H](C)O)N(C)C1` [LINCOMYCIN], in the assay with Mycoplasma putrefaciens [1], the MIC50 was 1 µg/mL (≈ 2.46 µM) and the MIC90 is 2 µg/mL (≈ 4.92 µM). In the assay with Mycoplasma putrefaciens [2], this molecule gave an MIC50 of 0.5 µg/mL (≈ 1.23 µM) and an MIC90 of 1 µg/mL (≈ 2.46 µM). Besides, 1 µg/mL (≈ 2.46 µM) was the least that counted as inhibitory in the assay with Mycoplasma putrefaciens [3] (KS1, 24 h) (MIC).

In the assay with Mycoplasma putrefaciens [1], `CCn1cc(C(=O)O)c(=O)c2ccc(C)nc21` [NALIDIXIC ACID] showed an MIC50 of over 256 µg/mL and an MIC90 of over 256 µg/mL. In the assay on Mycoplasma putrefaciens [2], this molecule showed an MIC50 of over 256 µg/mL and an MIC90 of over 256 µg/mL. In addition, the lowest concentration to inhibit growth against Mycoplasma putrefaciens [3] (KS1, 24 h) (MIC) was 512 µg/mL (≈ 2200 µM).

In the assay on Mycoplasma putrefaciens [1], `CCn1cc(C(=O)O)c(=O)c2cc(F)c(N3CCNCC3)cc21` [NORFLOXACIN] had an MIC50 of 2 µg/mL (≈ 6.26 µM) and an MIC90 of 4 µg/mL (≈ 12.5 µM). In the assay with Mycoplasma putrefaciens [2], this molecule showed an MIC50 of 2 µg/mL (≈ 6.26 µM) and an MIC90 of 2 µg/mL (≈ 6.26 µM). The molecule also had an MIC in the assay with Mycoplasma putrefaciens [3] (KS1, 24 h) of 2 µg/mL (≈ 6.26 µM).

Turning to `CN(C)[C@@H]1C(O)=C(C(N)=O)C(=O)[C@@]2(O)C(O)=C3C(=O)c4c(O)cccc4[C@@](C)(O)[C@H]3[C@H](O)[C@@H]12` [OXYTETRACYCLINE], the MIC50 against Mycoplasma putrefaciens [1] stood at 1 µg/mL (≈ 2.17 µM); against Mycoplasma putrefaciens [2] it was 0.5 µg/mL (≈ 1.09 µM). For the same molecule, the results for the MIC90 in the assay on Mycoplasma putrefaciens [1] and in the assay with Mycoplasma putrefaciens [2] were 4 µg/mL (≈ 8.69 µM) and 0.5 µg/mL (≈ 1.09 µM), respectively. Also, it took 0.5 µg/mL (≈ 1.09 µM) to inhibit growth in the assay on Mycoplasma putrefaciens [3] (KS1, 24 h) (MIC).

With `CN[C@@H]1[C@H](O)[C@H](NC)[C@H]2O[C@@]3(O)C(=O)C[C@@H](C)O[C@H]3O[C@@H]2[C@H]1O` [SPECTINOMYCIN], the MIC50 against Mycoplasma putrefaciens [1] and against Mycoplasma putrefaciens [2] was 16 µg/mL (≈ 48.1 µM) throughout. Also, the figures for the MIC90 with Mycoplasma putrefaciens [1] and in the assay on Mycoplasma putrefaciens [2] were 16 µg/mL (≈ 48.1 µM) and 32 µg/mL (≈ 96.3 µM), respectively. Moreover, the MIC with Mycoplasma putrefaciens [3] (KS1, 24 h) was 32 µg/mL (≈ 96.3 µM).

With `CN[C@@H]1[C@H](O[C@H]2[C@H](O[C@H]3[C@H](O)[C@@H](O)[C@H](N=C(N)N)[C@@H](O)[C@@H]3N=C(N)N)O[C@@H](C)[C@]2(O)C=O)O[C@@H](CO)[C@H](O)[C@H]1O` [STREPTOMYCIN], in the assay with Mycoplasma putrefaciens [1], the MIC50 is 32 µg/mL (≈ 55 µM) and the MIC90 was found to be 64 µg/mL (≈ 110 µM). In addition, in the assay on Mycoplasma putrefaciens [2], the MIC50 is 32 µg/mL (≈ 55 µM) and the MIC90 amounted to 32 µg/mL (≈ 55 µM). The same molecule had an MIC against Mycoplasma putrefaciens [3] (KS1, 24 h) of 64 µg/mL (≈ 110 µM).

In the assay with Mycoplasma putrefaciens [1], `CC[C@H]1OC(=O)C[C@@H](O)[C@H](C)[C@@H](O[C@@H]2O[C@H](C)[C@@H](O[C@H]3C[C@@](C)(O)[C@@H](O)[C@H](C)O3)[C@H](N(C)C)[C@H]2O)[C@@H](CC=O)C[C@@H](C)C(=O)/C=C/C(C)=C/[C@@H]1CO[C@@H]1O[C@H](C)[C@@H](O)[C@@H](OC)[C@H]1OC` [TYLOSIN] showed an MIC50 of 0.03 µg/mL (≈ 0.0327 µM) and an MIC90 of 0.06 µg/mL (≈ 0.0655 µM). Moreover, in the assay with Mycoplasma putrefaciens [2], the MIC50 amounted to 0.015 µg/mL (≈ 0.0164 µM) and the MIC90 stood at 0.015 µg/mL (≈ 0.0164 µM). The MIC in the assay on Mycoplasma putrefaciens [3] (KS1, 24 h) turned out to be 0.06 µg/mL (≈ 0.0655 µM).

With GENTAMICIN, the values for the MIC50 in the assay with Mycoplasma putrefaciens [1] and against Mycoplasma putrefaciens [2] were 64 µg/mL and 32 µg/mL, respectively. The MIC90 amounted to 64 µg/mL with Mycoplasma putrefaciens [1] and 32 µg/mL in the assay on Mycoplasma putrefaciens [2]. The molecule further showed an MIC against Mycoplasma putrefaciens [3] of 64 µg/mL.

As for SPIRAMYCIN, the MIC50 in the assay with Mycoplasma putrefaciens [1] came to 0.25 µg/mL; in the assay with Mycoplasma putrefaciens [2] it was 0.125 µg/mL. Besides, the MIC90 is 0.5 µg/mL against Mycoplasma putrefaciens [1] and 0.25 µg/mL in the assay on Mycoplasma putrefaciens [2]. The molecule further had an MIC in the assay on Mycoplasma putrefaciens [3] of 0.25 µg/mL.
